Assay results as given in ChEMBL document CHEMBL3045371, “Structure-Activity Relationships of the Azole Fungicide Metconazole and Its Related Azolylmethylcycloalkanols” (1999).
Converted amounts (≈) assume the structure as drawn.

What follows are molecules tested on Fusarium fujikuroi (assay: Fungicidal activity against Fusarium fujikuroi assessed as inhibition of mycelial growth incubated for 3 days at 28 degC). Conditions: 72 h.
Format: functional

First: CC1(C)CCC[C@@H](Cc2ccc(Cl)cc2)[C@@]1(O)Cn1cncn1 (relative stereo)
Second: CC1(C)CCC[C@H](Cc2ccc(Cl)cc2)[C@@]1(O)Cn1cncn1 (relative stereo)
The EC90 of the first is 3.4-fold lower: 4.4 µg/mL (≈ 13.2 µM) for the first, 15 µg/mL (≈ 44.9 µM) for the second.

First: O[C@]1(Cn2cncn2)CCC[C@H]1Cc1ccc(Cl)cc1 (relative stereo)
Second: O[C@]1(Cn2cncn2)CCC[C@@H]1Cc1ccc(Cl)cc1 (relative stereo)
The EC90 of the first is 72-fold higher: 152 µg/mL (≈ 521 µM) for the first, 2.1 µg/mL (≈ 7.2 µM) for the second.

Going from CC1(C)CC[C@@H](Cc2ccc(Cl)cc2)[C@@]1(O)Cn1cncn1 to CC1(C)CC[C@H](Cc2ccc(Cl)cc2)[C@@]1(O)Cn1cncn1 (relative stereo), the EC90 falls from 2 µg/mL (≈ 6.25 µM) to 0.2 µg/mL (≈ 0.625 µM) (10-fold).

First: O[C@]1(Cn2cncn2)CCCC[C@H]1Cc1ccc(Cl)cc1 (relative stereo)
Second: O[C@]1(Cn2cncn2)CCCC[C@@H]1Cc1ccc(Cl)cc1 (relative stereo)
The EC90 of the first is lower: 64.3 µg/mL (≈ 210 µM) for the first, greater than 400 µg/mL for the second.

First: CC1(C)CCCC[C@@H](Cc2ccc(Cl)cc2)[C@@]1(O)Cn1cncn1
Second: CC1(C)CCCC[C@H](Cc2ccc(Cl)cc2)[C@@]1(O)Cn1cncn1 (relative stereo)
The EC90 of the first is 3.1-fold higher: 4 µg/mL (≈ 11.5 µM) for the first, 1.3 µg/mL (≈ 3.74 µM) for the second.

Going from O[C@]1(Cn2cncn2)CCCCC[C@@H]1Cc1ccc(Cl)cc1 (relative stereo) to O[C@]1(Cn2cncn2)CCCCC[C@H]1Cc1ccc(Cl)cc1 (relative stereo), the EC90 rises from 2.2 µg/mL (≈ 6.88 µM) to greater than 400 µg/mL.
